In US20180221457A1 (VAL-CHUM, LIMITED PARTNERSHIP, priority 2015, published 2018):

Assays:
human G3PP (hG3PP) = molecular target: T1, human G3PP (hG3PP) (Homo sapiens, UniProt A6NDG6); test: Effect of organic acids on G3PP activity in hG3PP-overexpressing 293T cell extracts; assay type: biochemical; details: 10 mM Gro3P substrate, 2 or 10 mM test organic acid, 30 min at 30° C.
T1 construct: expressed in transfected cells; host or cells: 293T cells (whole cell extract)
T1 sequence (A6NDG6 1-321): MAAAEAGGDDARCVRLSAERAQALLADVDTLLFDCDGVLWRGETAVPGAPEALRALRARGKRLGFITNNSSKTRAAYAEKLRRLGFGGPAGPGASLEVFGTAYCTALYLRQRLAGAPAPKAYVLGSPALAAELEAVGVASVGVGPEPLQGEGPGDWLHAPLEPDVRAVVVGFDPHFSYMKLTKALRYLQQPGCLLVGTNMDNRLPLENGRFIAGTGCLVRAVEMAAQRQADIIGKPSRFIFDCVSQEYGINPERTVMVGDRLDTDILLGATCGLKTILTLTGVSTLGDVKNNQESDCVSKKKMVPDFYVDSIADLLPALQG
Procedure: In order to examine the effect of various compounds on G3PP activity, human G3PP (hG3PP) was overexpressed in 293T cells, using a plasmid vector. Simultaneously control cells received GFP (Green Fluorescent Protein) expression plasmid. After 72 h following transfection, cells were harvested and whole cell extracts were prepared in Krebs Ringer Buffer (KRBH). G3PP was assayed using […] G3PP cell extract protein (or GFP control extract) with 10 mM Gro3P substrate and 2 or 10 mM test organic acid (R-hydroxy butyric acid, glycolate, succinate, citrate, malate, fumarate, lactate and malonate). Incubations were for 30 min at 30° C. Then the reactions were stopped by adding perchloric acid and glycerol released was measured using Γ-^32P-labeled ATP plus glycerokinase. The amount of glycerol release is proportional to the activity of hG3PP in the cell extracts.

INS832/13 β-cells = test: Free fatty acids and glycerol release from INS832/13 cells; assay type: cell-based, rat; details: 50 μM orlistat, 2 h
Procedure: (§1) Free fatty acids and glycerol release. For FFA determinations, isolated rat islets were pre-incubated for 1 h in KRBH containing 2 mM glutamine and at 4 mM glucose, 50 μM carnitine and then incubated for 2 h at 4, 10, 16 and 25 mM glucose. The low and high glucose concentrations were 2 and 10 mM, respectively, when INS832/13 cells were used. Incubations were done without and with the panlipase inhibitor, orlistat. Cells and islets were harvested after incubations for protein extraction. FFA released into the medium were extracted by a modified Dole-Meinertz extraction procedure (Puttmann et al., 1993). Briefly, the media (0.5 ml), in Pyrex glass tubes, were mixed with the internal standard [^2H31]-palmitic acid and extracted with 2.5 ml of a solvent mixture containing isopropanol-n-heptane-2M phosphoric acid (40:10:1, v/v). […] The dried fatty acids were derivatized with phenacylbromide and quantified by reverse phase HPLC (Mehta et al., 1998) using a Zorbax Eclipse plus XDB analytical C18 column (4.6×250 mm; 5 μm; Agilent Technology). FFA were eluted using methanol/water (92.5:7.5, v/v) at a flow rate of 1.5 ml/min and absorbance of eluting FFA-phenacyl derivatives was measured at 242 and 254 nm. […] Glycerol release was determined by a radiometric glycerol assay (Bradley and Kaslow, 1989) using [Γ-^32P]ATP and glycerokinase.

rat islets = test: Free fatty acids and glycerol release from isolated rat islets; assay type: cell-based; details: 50 μM orlistat, 2 h
Procedure: Islet and hepatocyte isolation. Pancreatic islets were isolated from rats and mice (Peyot et al., 2009). Isolated islets were cultured overnight at 37° C. in complete RPMI 1640 medium. Hepatocytes were isolated from rats by in situ collagenase perfusion and were seeded in DMEM complete medium (Merlen et al., 2014).
as §1, with “v/v). After thorough mixing by vortex, the tubes were kept in a bath sonicator (Branson Ultrasonic) and sonicated for 2 min with 30 s intervals, avoiding sample heating. After rigorous mixing by vortex, the tubes were let stand at room temperature for 10 min, and then heptane (1 ml) and water (1.5 ml) were added and the tubes were thoroughly mixed by vortex followed by sonication for 1 min. Then the tubes were centrifuged at 1000×g for 10 min at 4° C.” for “v/v).”, “glycerokinase. […]” for “glycerokinase.”

[1] = substrate: O=P(O)(O)OCC(O)CO; test: purified protein, by the assay type; details: other: substrate glycerol-3-phosphate; pH 7.5

With `CC(O)CC(=O)O` (stereo not drawn) [beta-hydroxybutyrate] the “G3PP activity (glycerol released)” value (human G3PP (hG3PP)) was “stimulated”.

`O=C(O)/C=C/C(=O)O` [fumarate] was tested, and the “G3PP activity (glycerol released)” value (human G3PP (hG3PP)) was “do not activate similarly”.

With `O=C(O)CC(O)C(=O)O` (stereo not drawn) [malate] the “G3PP activity (glycerol released)” value (human G3PP (hG3PP)) was “do not activate similarly”.

With `O=C(O)CC(=O)O` [malonate] the “G3PP activity (glycerol released)” value (human G3PP (hG3PP)) was “do not activate similarly”.

For `CCCCCCCCCCC[C@@H](C[C@@H]1OC(=O)[C@H]1CCCCCC)OC(=O)[C@H](CC(C)C)NC=O` [orlistat], the glycerol release (INS832/13 β-cells; elevated glucose concentration) was “not inhibited”, the “FFA release (lipolysis)” value (INS832/13 β-cells; high glucose concentrations) was “reduction” and the glycerol release (rat islets; elevated glucose concentration) was “not inhibited”. The “FFA release (lipolysis)” value (rat islets; high glucose concentrations) was “reduction” and the glycerol release (rat islets; medium concentration of glucose (10 mM)) was “moderate inhibition”.

In the case of `O=C(O)CCC(=O)O` [succinate], the “G3PP activity (glycerol released)” value (human G3PP (hG3PP)) is reported as “marked stimulation”.

B1: Recombinant human PGP (Homo sapiens) (protein)
chain: T1 sequence (A6NDG6 1-321)
Work on B1 yielded a Km [1] of 1500 µM and a kcat [1] of 0.1 s⁻¹.
